pIC50: −log10 of the molar value.
system: asymmetric di-methyl PABP1 in RKO cells; test: In Cell Western (ICW) for asymmetric di-methyl PABP1 and DNA content in RKO cells; assay type: cell-based; conditions: 48 hours
In short: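 RKO cells treated with compound for 48 h at 37 °C, then fixed, methanol-permeabilized and stained for asymmetric di-methyl PABP1 (800 nm) with DRAQ5 DNA stain (700 nm). Signal ratio normalized to DMSO and 20 μM reference-compound controls. IC50 from nine 3-fold dilutions in triplicate.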

Row | SMILES | pIC50
1 | CNCCN(C)Cc1cccc(-c2cc(C(=O)NCc3c(C)cc(C)[nH]c3=O)c(C)c3[nH]ncc23)c1 [Compound 372] | ≤ 4.70
2 | Cc1cc(C)c(CNC(=O)c2cc(-c3cccc(CN(C)CCN)c3)nc3c2cnn3C(C)C)c(=O)[nH]1 [Compound 360] | 6.03
3 | CNCCN(C)Cc1cccc(-c2cc(C(=O)NCc3c(C)cc(C)[nH]c3=O)c3cnn(C(C)C)c3n2)c1 [Compound 368] | 6.00
4 | CNCCN(C)Cc1cccc(-c2cc(C(=O)NCc3c(C)cc(C)[nH]c3=O)c3cnn(C(C)C)c3c2)c1 [Compound 367] | 5.19

same assay, conditions: Homo sapiens, RKO, 48 h

Row | SMILES | pIC50
5 | CNCCN(C)Cc1ccc(-c2cc(C(=O)NCc3c(C)cc(C)[nH]c3=O)c(C)c3n[nH]cc23)cc1 [Compound 362] | ≤ 4.70

same assay, conditions: Homo sapiens, RKO, In Cell Western

Row | SMILES | pIC50
6 | CC(C)n1ncc2c(C(=O)N(C)CC3CCOCC3)cc(-c3cccc(CN(C)CCN)c3)nc21 [Compound 256] | 5.02
7 | CNCCN(C)Cc1cccc(-c2nc(C(=O)NCc3cn4ccsc4n3)c3cnn(C4CC4)c3n2)c1 [Compound 180] | 6.05
8 | CN(CCN)Cc1cccc(-c2ccc(C(=O)NCC3CCOCC3)c(N(C)CC3CC3)c2)c1 [Compound 263] | 4.70
9 | CNCCN(C)Cc1cccc(-c2cc(C(=O)N(C)Cc3ccccn3)c3cnn(C(C)C)c3n2)c1 [Compound 300] | 5.20
10 | CNCCN(C)Cc1cccc(-c2cc(C(=O)NCc3ccncc3)c3cnn(C(C)C)c3n2)c1 [Compound 182] | 5.45

Reference: patent publication US20170280720A1, “ARGININE […] INHIBITORS AND USES THEREOF” (EPIZYME, INC., priority 2014, published 2017)
